Data on one molecule can be found in patent US20260284115A1, “THERAPEUTICS AND METHODS” (CAMBRIDGE ENTERPRISE LIMITED, priority 2022, published 2026).

This experiment deals with NALCN. The experiment can be described thus: Circulating ZsGreen+ cells (CZCs) in peripheral blood of non-tumour-bearing mice after NALCN blockade. The class given is in vivo. Particulars: Prom1^CreERT2/Lacz; Rosa26^ZSG; Nalcn^+/+ mice without oncogenic alleles, n=10; FIG. 1a. The procedure: Peripheral blood (500 μl-1 ml) was harvested from mice at autopsy into 10 μl of 0.5M EDTA, diluted in PBS and assessed by MACSQuant Analyzer (Miltenyi Biotech Inc.) for ZSgreen expression (525/50 nm [FITC] vs 614/50 nm [PI]). Cells for single cell RNA sequencing and tail vein injection were sorted using a BD FACSAria II Cell Sorter (BD Biosciences) excitation at 525/50 nm (FITC) vs 614/50 nm (PI). Non-tamoxifen induced mouse peripheral blood served as a negative control to set gate parameters. Twenty-five thousand ZSG^+ cells were sorted and injected into recipient NOD SCID gamma mice (Charles River) and aged. For serial dilution assessment of tCZC metastasis initiation, tCZCs were isolated from donor tumour-bearing via FACS based on ZSGreen expression and placed into culture medium. Culture medium: Advanced DMEM/F12 (31330038, ThermoFisher), 2 mM L-glutamine (25030024, ThermoFisher), B27 (12587010, ThermoFisher), N2 (A1370701, ThermoFisher), containing growth factors (50 ng/ml EGF [Peprotech], 100 ng/ml bFGF [100-18c, Peprotech] and 1% FBS (10500064, ThermoFisher). Cells were grown at 37° C. in 5% CO2. Recipient NOD SCID gamma mice (Charles River) were injected with either 10, 100, 1,000 or 10,000 tCZC cells via tail-vein injection and aged. Full autopsy and tissue harvesting were performed as described above.

In the case of `[Cl][Gd]([Cl])[Cl]` [Gadolinium chloride], the “numbers of CZCs (circulating ZSG+ cells) in peripheral blood; stem cell-like cell shedding” value is given as “significantly increased”.
